From publication PMC8163216, “Macrocycle synthesis strategy based on step-wise “adding and reacting” three components enables screening of large combinatorial libraries” (Chemical Science, 2020)

Columns and labels:
[1] = One-pot thiol-to-amine (S-to-N) bis-alkylation/conjugate addition/SNAr: Cys thiol and N-terminal secondary benzylamine (peptoid-type) bridged by bis-electrophile linkers 1-6 (8 equiv, 800 uM) after TCEP removal of the S-SO3H group (TCEP 400 uM, excess benzylamine 1.6 mM present); details: the molecule shown is the open-chain precursor, 60 mM aq NH4HCO3 pH 8 with about 5% DMSO, 0.1 mM, 37.0 °C, 3 steps, scale: %
human thrombin = target: T1, human thrombin (Homo sapiens, UniProt P00734); assay: Determination of the inhibitory constants of purified macrocycles (thrombin, fluorogenic substrate Z-Gly-Gly-Arg-AMC); assay type: biochemical; details: for Ki: purified macrocycle, 2 nM thrombin, 50 μM Z-Gly-Gly-Arg-AMC, Ki from IC50 by Cheng-Prusoff
T1 construct: consists of two polypeptide chains of 259 (H-chain) and 37 amino acid residues; purchased Molecular Innovations
Protocol: Determination of the inhibitory constants of macrocycles
The IC50s of macrocycles were determined by measuring the residual activity of thrombin at different dilutions of macrocycle using a fluorogenic substrate. The reactions were performed in a volume of 150 µl in 96-well plates. A volume of 50 µl of 2-fold dilutions of macrocycle in assay buffer (10 mM Tris-Cl [pH 7.4], 150 mM NaCl, 10 mM MgCl2, 1 mM CaCl2, 0.1% w/v BSA, 0.01% v/v Triton-X100) were pipetted to the wells. A volume of 50 µl of thrombin (6 nM) in assay buffer was added to each well to reach a final concentration of 2 nM and was incubated for 15 min. A volume of 50 µl of the fluorogenic substrate Z-Gly-Gly-Arg-AMC (150 µM) in assay buffer containing 3% DMSO was added to reach a final substrate concentration of 50 µM and 1% DMSO. Fluorescence intensity was measured for 30 min using an Infinite M200Pro plate reader (Tecan; excitation at 368 nm, emission at 467 nm) with a read every minute.
Sigmoidal curves were fitted to the data using Prism 5 (GraphPad software) and the following dose- […]
wherein x is macrocycle concentration, y is % protease activity, and p is Hill slope. IC50 values were derived […]
The inhibitory constants (Ki) were calculated using the following equation of Cheng and Prusoff: […]
wherein IC50 is the functional strength of the inhibitor, [S]0 is the total substrate concentration, and Km is the Michaelis-Menten constant. The Km for thrombin and the substrate Z-Gly-Gly-Arg-AMC was determined to […]

human plasma [2] = assay: Prothrombin time (PT), extrinsic coagulation pathway, in human plasma; assay type: biochemical; details: EC2× = concentration for 2-fold increase in coagulation time
Protocol: (§1) Determination of target specificity
(§2) The specificity was profiled by testing the inhibition of a panel of trypsin-like serine proteases using fluorogenic or chromogenic substrates. Dilutions of macrocycle were prepared ranging from 40 µM to 40 nM for all proteases except for thrombin (1 µM to 1 nM). The following final concentrations of human proteases were used: 2 nM thrombin (Molecular Innovations), 0.6 nM activated protein C (APC, Molecular Innovations), 1.5 nM uPA (Molecular Innovations), 0.25 nM plasma kallikrein (Innovative Research), 1 nM factor XIa (Innovative Research), 7.5 nM tPA (Molecular Innovations), 0.1 nM trypsin (Molecular Innovations), 3 nM factor XIIa (Molecular Innovations), and 2.5 nM plasmin (Molecular Innovations). […]
(§3) A volume of 50 µl of the substrate in assay buffer containing 3% DMSO was added. Fluorescence intensity was measured for 30 min using an Infinite M200Pro plate reader (Tecan; excitation at 368 nm, emission at 467 nm) with a read every minute. For APC protease, absorption was measured at 405 nm with the same plate reader for a period of 30 min with a read every minute. […] The inhibitory constants were calculated as described above. […]
(§4) Coagulation times were determined in human plasma using a STAGO STart4 coagulation analyzer (Diagnostica). […]
(§5) ball stopped moving was recorded as coagulation time. […]

human plasma [3] = assay: Activated partial thromboplastin time (aPTT), intrinsic coagulation pathway, in human plasma; assay type: biochemical; details: EC2× = concentration for 2-fold increase in coagulation time
Protocol: as §1, §2, §3, §4, §5

[4] = test system: panel of nine human proteases; assay: Determination of target specificity against a panel of trypsin-like serine proteases; assay type: biochemical; details: panel of nine human proteases structurally and functionally most similar to thrombin
Protocol: as §1, §2, §3, §4, §5

C=CS(=O)(=O)CCSC[C@H](NC(=O)CNC(=O)CNCc1ccccc1)C(=O)NCC(=O)N[C@@H](Cc1c[nH]c2ccccc12)C(N)=O [Bn-NH-CH2CO-Gly-Cys(SH)-Gly-Trp-NH2]
ring closure, conversion by HPLC ([1]; 15-membered ring): 93

C=CS(=O)(=O)CS(=O)(=O)CCSC[C@H](NC(=O)CNC(=O)CNCc1ccccc1)C(=O)NCC(=O)N[C@@H](Cc1c[nH]c2ccccc12)C(N)=O [Bn-NH-CH2CO-Gly-Cys(SH)-Gly-Trp-NH2]
ring closure, conversion by HPLC ([1]; 17-membered ring): 41

NC(=O)[C@H](Cc1c[nH]c2ccccc12)NC(=O)CNC(=O)[C@H](CSCc1ccc(CBr)cc1)NC(=O)CNC(=O)CNCc1ccccc1 [Bn-NH-CH2CO-Gly-Cys(SH)-Gly-Trp-NH2]
ring closure, conversion by HPLC ([1]; 16-membered ring): 18

NC(=O)[C@H](Cc1c[nH]c2ccccc12)NC(=O)CNC(=O)[C@H](CSCc1cccc(CBr)n1)NC(=O)CNC(=O)CNCc1ccccc1 [Bn-NH-CH2CO-Gly-Cys(SH)-Gly-Trp-NH2]
ring closure, conversion by HPLC ([1]; 15-membered ring): 86

NC(=O)[C@H](Cc1c[nH]c2ccccc12)NC(=O)CNC(=O)[C@H](CSCc1ccccc1CBr)NC(=O)CNC(=O)CNCc1ccccc1 [Bn-NH-CH2CO-Gly-Cys(SH)-Gly-Trp-NH2]
ring closure, conversion by HPLC ([1]; 14-membered ring): 32

NC(=O)[C@H](Cc1c[nH]c2ccccc12)NC(=O)CNC(=O)[C@H](CSc1ncnc(Cl)n1)NC(=O)CNC(=O)CNCc1ccccc1 [Bn-NH-CH2CO-Gly-Cys(SH)-Gly-Trp-NH2]
ring closure, conversion by HPLC ([1]; 13-membered ring): 67

N=C(N)NCCCC1NC(=O)CC2CCCN2C(=O)CN(Cc2ccccc2CO)Cc2ccccc2CSCC(C(N)=O)NC1=O (centres unmarked) [macrocycle 7]
Ki (human thrombin): 59 ± 6 nM

N=C(N)NCCC[C@@H]1NC(=O)C[C@H]2CCCN2C(=O)CN(Cc2ccco2)Cc2ccccc2CSC[C@@H](C(N)=O)NC1=O [macrocycle 57]
fold better PT EC2× than parent 7 (human plasma [2]): 1.9 fold | fold better aPTT EC2× than parent 7 (human plasma [3]): 1.4 fold | Ki (human thrombin): 10.6 ± 2 nM | fold improvement of Ki over parental macrocycle 7 (human thrombin; thrombin Ki relative to 7): 5.5 fold | target selectivity [4]: high target selectivity

N=C(N)NCCC[C@@H]1NC(=O)C[C@H]2CCCN2C(=O)CN(Cc2ccccc2CO)Cc2ccccc2CSC[C@@H](C(N)=O)NC1=O [macrocycle 60]
Ki (human thrombin): 95 ± 17 nM

N=C(N)NCCC[C@@H]1NC(=O)C[C@@H]2CCCN2C(=O)CN(Cc2ccco2)Cc2ccccc2CSC[C@@H](C(N)=O)NC1=O [macrocycle 61]
Ki (human thrombin): 520 ± 110 nM
